Test results taken from paper PMC12396409, “Screening and hit evaluation of a microbial metabolite library against the pathogenic Plasmodium falciparum and Toxoplasma gondii parasites” (International Journal for Parasitology: Drugs and Drug …, 2025).
Read-outs that look alike come from different tables or passages of the source. Where a SMILES comes first, the peptide text is derived from it. Bridges are numbered along the chain shown (N, C = ends). [ ]: non-standard residue; d: D form. The star is where a group is joined. aIle = CC[C@@H](C)[C@H](N)C(=O)O; X2 = CCCCCCCCCCCC(O)CC(=O)*

Tests used:
[1] = test system: P. falciparum 3D7 parasites; test: P. falciparum growth inhibition assay, 1-cycle (72 h treatment), SYBR DNA staining (library screen at 2 μg/mL and dose-response); type: cell-based, Plasmodium falciparum
[2] = test system: T. gondii RH strain (RH-Tub-eYFP) tachyzoites; test: microbe, parasite or virus in culture; type: cell-based, Toxoplasma gondii; settings: 72 h, 72 h; for percent parasite growth at 2 µg/mL: Toxoplasma gondii
[3] = test system: P. falciparum 3D7 parasites; test: P. falciparum growth inhibition assay, 2-cycle (120 h treatment), delayed-death screen and dose-response; type: cell-based, Plasmodium falciparum
[4] = library screen at 2 μg/mL, 72 h, % growth, replicate 1
[5] = library screen at 2 μg/mL, 72 h, % growth, replicate 2
[6] = library screen at 2 μg/mL, % growth, replicate 1
[7] = library screen at 2 μg/mL, % growth, replicate 2
[8] = library screen at 2 μg/mL, 120 h, % growth, replicate 1
[9] = library screen at 2 μg/mL, 120 h, % growth, replicate 2
[10] = Plasmodium falciparum, 3D7, P. falciparum, 72 h, screen at 2 μg/mL, replicate 1, read-out: Pf_72h_%Growth_Rep1
[11] = Plasmodium falciparum, 3D7, P. falciparum, 72 h, screen at 2 μg/mL, replicate 2, read-out: Pf_72h_%Growth_Rep2
[12] = Plasmodium falciparum, 3D7, P. falciparum, 120 h, screen at 2 μg/mL, replicate 1, read-out: Pf_120h_%Growth_Rep1
[13] = Plasmodium falciparum, 3D7, P. falciparum, 120 h, screen at 2 μg/mL, replicate 2, read-out: Pf_120h_%Growth_Rep2
[14] = P. falciparum 3D7, 72 h, parasite screen at 2 μg/mL, % growth, replicate 1
[15] = P. falciparum 3D7, 72 h, parasite screen at 2 μg/mL, % growth, replicate 2
[16] = T. gondii, parasite screen at 2 μg/mL, % growth, replicate 1
[17] = T. gondii, parasite screen at 2 μg/mL, % growth, replicate 2
[18] = P. falciparum 3D7, 120 h, parasite screen at 2 μg/mL, % growth, replicate 1
[19] = P. falciparum 3D7, 120 h, parasite screen at 2 μg/mL, % growth, replicate 2
[20] = P. falciparum, 72 h, screen at 2 μg/mL, replicate 1
[21] = P. falciparum, 72 h, screen at 2 μg/mL, replicate 2
[22] = T. gondii, screen at 2 μg/mL, replicate 1
[23] = T. gondii, screen at 2 μg/mL, replicate 2
[24] = P. falciparum, 120 h, screen at 2 μg/mL, replicate 1
[25] = P. falciparum, 120 h, screen at 2 μg/mL, replicate 2
[26] = T. gondii, screen at 2 μg/mL, replicate 1, read-out: Tg_72h_%Growth_Rep1
[27] = T. gondii, screen at 2 μg/mL, replicate 2, read-out: Tg_72h_%Growth_Rep2
[28] = Plasmodium falciparum, 3D7, 72 h, P. falciparum, 72 h, screen at 2 μg/mL, replicate 1, read-out: Pf_72h_%Growth_Rep1
[29] = Plasmodium falciparum, 3D7, 72 h, P. falciparum, 72 h, screen at 2 μg/mL, replicate 2, read-out: Pf_72h_%Growth_Rep2
[30] = T. gondii, 2 μg/mL, values are growth (% of control)
[31] = Plasmodium falciparum, 3D7, 120 h, P. falciparum, 120 h, screen at 2 μg/mL, replicate 1, read-out: Pf_120h_%Growth_Rep1
[32] = Plasmodium falciparum, 3D7, 120 h, P. falciparum, 120 h, screen at 2 μg/mL, replicate 2, read-out: Pf_120h_%Growth_Rep2

Compound: CC[C@@H](C)[C@@H]1NC(=O)[C@@H](CC(C)C)NC(=O)[C@H](CC(C)C)NC(=O)[C@H](Cc2c[nH]c3ccccc23)NC(=O)CNC(=O)[C@H](CC(N)=O)NC1=O [Desotamide] (cyclo(GWL[dL][aIle]N))
- activity at 2 µg/mL ([1]; Plasmodium falciparum, 3D7, library screen at 2 μg/mL, 72 h, % growth, replicate 1, read-out: Pf_72h_%Growth_Rep1): 67.3%
- activity at 2 µg/mL ([1]; Plasmodium falciparum, 3D7, library screen at 2 μg/mL, 72 h, % growth, replicate 2, read-out: Pf_72h_%Growth_Rep2): 64.4%
- percent parasite growth at 2 µg/mL ([2]; library screen at 2 μg/mL, % growth, replicate 1, read-out: Tg_72h_%Growth_Rep1): 120%
- percent parasite growth at 2 µg/mL ([2]; library screen at 2 μg/mL, % growth, replicate 2, read-out: Tg_72h_%Growth_Rep2): 93%
- activity at 2 µg/mL ([3]; Plasmodium falciparum, 3D7, library screen at 2 μg/mL, 120 h, % growth, replicate 1, read-out: Pf_120h_%Growth_Rep1): 36%
- activity at 2 µg/mL ([3]; Plasmodium falciparum, 3D7, library screen at 2 μg/mL, 120 h, % growth, replicate 2, read-out: Pf_120h_%Growth_Rep2): 50.7%

Compound: CS(=O)(=O)c1ccc([C@@H](O)[C@H](N)CF)cc1 [Florfenicol amine]
- Pf_72h_%Growth_Rep1 [1, 4]: 83.39%
- Pf_72h_%Growth_Rep2 [1, 5]: 89.53%
- Tg_72h_%Growth_Rep1 [2, 6]: 102.85%
- Tg_72h_%Growth_Rep2 [2, 7]: 100.85%
- Pf_120h_%Growth_Rep1 [3, 8]: 94.89%
- Pf_120h_%Growth_Rep2 [3, 9]: 93.06%

Compound: C[C@H]1[C@H](C)CC[C@]2(C(=O)O)CC[C@]3(C)C(=CC[C@@H]4[C@@]5(C)CC[C@H](O)C(C)(C)[C@@H]5CC[C@]43C)[C@H]12 [Ursolic acid]
- activity at 2 µg/mL [1, 10]: 77.7%
- activity at 2 µg/mL [1, 11]: 84%
- percent parasite growth at 2 µg/mL ([2]; read-out: Tg_72h_%Growth_Rep1): 96%
- percent parasite growth at 2 µg/mL ([2]; read-out: Tg_72h_%Growth_Rep2): 92.8%
- activity at 2 µg/mL [3, 12]: 155%
- activity at 2 µg/mL [3, 13]: 79.7%

Compound: Cc1ncc(-c2c[nH]c3ccccc23)o1 [BIA-P1070]
- Pf_72h_%Growth_Rep1 [1, 14]: 82.71%
- Pf_72h_%Growth_Rep2 [1, 15]: 88.10%
- Tg_72h_%Growth_Rep1 [2, 16]: 139.44%
- Tg_72h_%Growth_Rep2 [2, 17]: 88.28%
- Pf_120h_%Growth_Rep1 [3, 18]: 92.74%
- Pf_120h_%Growth_Rep2 [3, 19]: 139.06%

Compound: CCCCCCCCCCCC(O)CC(=O)NC(CC(C)C)C(=O)NC(CCC(=O)O)C(=O)NC1C(=O)NC(C(C)C)C(=O)NC(CC(C)C)C(=O)NC(CO)C(=O)NC(CC(C)C)C(=O)NC(CC(C)C)C(=O)NC(CO)C(=O)NC(C(C)C)C(=O)OC1C (stereo not shown) [BIA-O1431] (X2-LETVLSLLSV; ester 3-C; configuration not given here)
- Pf_72h_%Growth_Rep1 [1, 14]: 80.05%
- Pf_72h_%Growth_Rep2 [1, 15]: 103.50%
- Tg_72h_%Growth_Rep1 [2, 16]: 138.54%
- Tg_72h_%Growth_Rep2 [2, 17]: 91.95%
- Pf_120h_%Growth_Rep1 [3, 18]: 94.38%
- Pf_120h_%Growth_Rep2 [3, 19]: 109.58%

Compound: CCCCCCC(C)C/C(C)=C/C(C)/C=C(C)/C=C/C(O)C(C)(C)c1cc(O)c([C@@H]2O[C@H](CO)C[C@H](O)[C@H]2O)c(=O)o1 (stereo partly shown) [Deoxyfusapyrone]
- Pf_72h_%Growth_Rep1 [1, 20]: 84.11%
- Pf_72h_%Growth_Rep2 [1, 21]: 85.81%
- Tg_72h_%Growth_Rep1 [2, 22]: 120.14%
- Tg_72h_%Growth_Rep2 [2, 23]: 99.56%
- Pf_120h_%Growth_Rep1 [3, 24]: 68.41%
- Pf_120h_%Growth_Rep2 [3, 25]: 93.55%

Compound: CS(=O)(=O)c1ccc([C@@H](O)[C@@H](CO)NC(=O)C(Cl)Cl)cc1 [Thiamphenicol, reference compound]
- activity at 2 µg/mL ([1]; Plasmodium falciparum, 3D7; P. falciparum, 2 μg/mL, 72 h; read-out: 1) Growth (%) at 72 h): 49.5%
- activity at 2 µg/mL [1, 10]: 37.6%
- activity at 2 µg/mL [1, 11]: 61.4%
- percent parasite growth at 2 µg/mL [2, 26]: 106%
- percent parasite growth at 2 µg/mL [2, 27]: 98%
- 3) Fold change (72 h/120 h) ([3]; P. falciparum, growth at 72 h / growth at 120 h, 2 μg/mL): 2.5
- activity at 2 µg/mL ([3]; Plasmodium falciparum, 3D7; P. falciparum, 2 μg/mL, 120 h; read-out: 2) Growth (%) at 120 h): 19.8%
- activity at 2 µg/mL [3, 12]: 27.2%
- activity at 2 µg/mL [3, 13]: 12.3%

Compound: CO[C@H]1C[C@H](O[C@H]2[C@H](C)O[C@@H](O[C@@H]3/C(C)=C/C[C@@H]4C[C@@H](C[C@]5(C=C[C@H](C)[C@@H](C6CCCCC6)O5)O4)OC(=O)C4=C[C@H](C)[C@@H](O)[C@H]5OC/C(=C\C=C[C@@H]3C)[C@@]45O)C[C@@H]2OC)O[C@@H](C)[C@@H]1O [Doramectin, delta2-]
- Pf_72h_%Growth_Rep1 [1, 4]: 3.28%
- Pf_72h_%Growth_Rep2 [1, 5]: 1.57%
- Tg_72h_%Growth_Rep1 [2, 6]: 85.18%
- Tg_72h_%Growth_Rep2 [2, 7]: 104.19%
- Pf_120h_%Growth_Rep1 [3, 8]: 4.07%
- Pf_120h_%Growth_Rep2 [3, 9]: 0.97%

Compound: COc1cc2c(oc(=O)c3cc(C)cc(OC)c32)c2c([C@@H]3O[C@H](C)[C@H](O)[C@@](C)(O)[C@H]3O)ccc(O)c12 [Chrysomycin B]
- activity at 2 µg/mL [1, 28]: 67.5%
- activity at 2 µg/mL [1, 29]: 64.1%
- Mean ([2]; T. gondii, 2 μg/mL, mean of both replicates, growth (% of control)): 21.06
- Replicate 1 [2, 30]: 25.01
- Replicate 2 [2, 30]: 17.10
- percent parasite growth at 2 µg/mL [2, 26]: 25%
- percent parasite growth at 2 µg/mL [2, 27]: 17.1%
- activity at 2 µg/mL [3, 31]: 73%
- activity at 2 µg/mL [3, 32]: 73.7%

Compound: COc1c(OC/C=C(\C)CCC=C(C)C)ccc2ccc(=O)oc12 [Collinin]
- activity at 2 µg/mL [1, 10]: 69.5%
- activity at 2 µg/mL [1, 11]: 86.1%
- percent parasite growth at 2 µg/mL [2, 26]: 77.5%
- percent parasite growth at 2 µg/mL [2, 27]: 110%
- activity at 2 µg/mL [3, 12]: 60.9%
- activity at 2 µg/mL [3, 13]: 78%

Compound: COc1c(C)c(OC(=O)c2c(C)c(C)c(OC(=O)c3c(C)cc(O)c(C)c3O)c(C)c2OC)c(C)c(C)c1C(=O)O [Thielavin B]
- activity in the screen against P. falciparum ([1]; 2 μg/mL, 72 h, active = ≥80 % growth inhibition): active
- Pf_72h_%Growth_Rep1 [1, 20]: 13.97%
- Pf_72h_%Growth_Rep2 [1, 21]: 7.85%
- Tg_72h_%Growth_Rep1 [2, 22]: 86.62%
- Tg_72h_%Growth_Rep2 [2, 23]: 101.22%
- Pf_120h_%Growth_Rep1 [3, 24]: 38.21%
- Pf_120h_%Growth_Rep2 [3, 25]: 6.65%

Compound: CN(C)[C@@H]1C(O)=C(C(N)=O)C(=O)[C@@]2(O)C(O)=C3C(=O)c4c(O)ccc(Cl)c4[C@@](C)(O)[C@H]3C[C@@H]12 [Chlortetracycline]
- activity at 2 µg/mL [1, 28]: 97.7%
- activity at 2 µg/mL [1, 29]: 90.6%
- percent parasite growth at 2 µg/mL [2, 26]: 102%
- percent parasite growth at 2 µg/mL [2, 27]: 83.5%
- activity at 2 µg/mL [3, 31]: 149%
- activity at 2 µg/mL [3, 32]: 97.7%

Compound: CO[C@H]1C[C@@H]2CC[C@@H](C)[C@@](O)(O2)C(=O)C(=O)N2CCCC[C@H]2C(=O)O[C@H]([C@H](C)C[C@@H]2CC[C@@H](OC(=O)C(C)(CO)CO)[C@H](OC)C2)CC(=O)[C@H](C)/C=C(\C)[C@@H](O)[C@@H](OC)C(=O)[C@H](C)C[C@H](C)/C=C/C=C/C=C/1C [Temsirolimus]
- activity at 2 µg/mL [1, 10]: 59.1%
- activity at 2 µg/mL [1, 11]: 47.4%
- percent parasite growth at 2 µg/mL [2, 26]: 97%
- percent parasite growth at 2 µg/mL [2, 27]: 76.6%
- activity at 2 µg/mL [3, 12]: 61.2%
- activity at 2 µg/mL [3, 13]: 46.5%

Compound: Cc1c2c(c(O)c3c(O)cccc13)C(=O)O[C@@H]2[C@H]1[C@H](N(C)C)C(O)=C(C(N)=O)C(=O)[C@@H]1O [Apooxytetracycline, beta-]
- Pf_72h_%Growth_Rep1 [1, 4]: 86.47%
- Pf_72h_%Growth_Rep2 [1, 5]: 89.55%
- Tg_72h_%Growth_Rep1 [2, 6]: 117.82%
- Tg_72h_%Growth_Rep2 [2, 7]: 102.07%
- Pf_120h_%Growth_Rep1 [3, 8]: 69.86%
- Pf_120h_%Growth_Rep2 [3, 9]: 97.44%
